Data reported in patent US11981680B2, “Substituted thienopyrroles as PAD4 inhibitors” (BRISTOL-MYERS SQUIBB COMPANY, priority 2018, dated 2024).

Molecular target: human PAD4 (hPAD4) (Homo sapiens (Human), UniProt Q9UM07)
Experiment: RFMS Human PAD4 Functional Assay
Assay type: biochemical
Settings: rapid-fire mass spectrum (RFMS) assay; 5 nM hPAD4 enzyme, 250 μM BAEE, 30 min preincubation at 37° C.
Experimental: Compounds of the present invention were assayed as inhibitors of PAD4 using the assay protocol described below.
RFMS Human PAD4 Functional Assay:
Compounds were solubilized in 100% DMSO to achieve a10 mM compound concentration. Compound stock solutions were stored at RT. A series of dilutions were prepared in DMSO and mixed 8 times with 20 μL mixing volume. Final top concentration of compound in the assay is 50 μM. Final assay conditions were as follows: • Reaction volume: 26 μl • Assay buffer: 25 mM hepes, pH 7.5, 5 mM NaCl, 1 mM DTT, 0.2 mg/ml BSA, 0.01% CHAPS, 50 μM Calcium, and 5 μM TPEN • Final concentrations: 5 nM hPAD4 enzyme, 250 μM BAEE, and 0.5% DMSO • Total incubation time: 30 mins compound and enzyme preincubation at 37° C., 90 min enzyme/substrate reaction, 30 min reaction with phenyl glyoxal at 37° C. • Stop solution: 40 μl 5% TCA in ACN
0.13 μL of compound solution was added to 13 μL of 10 nM PAD4 in assay buffer. After 30 min 13 μl of 500 μM of BAEE was added in 25 mM hepes, pH 7.5, 5 mM NaCl, 1 mM DTT, 0.2 mg/ml BSA, 0.01% CHAPS, 50 μM Calcium, 5 μM TPEN was added and the reaction incubated for 90 min at 37° C. The enzymatic reaction was quenched by addition of 15 μl of 6.1N TCA, 100% Final Concentration is 20%, 35 μl of 8.5 mM phenyl glyoxal (final concentration 4 mM) is then added and the reaction is incubated for 30 min at 37° C.
After 30 minutes the plates are spun down to remove all precipitate. The enzyme reaction was quenched with an equal volume of methanol containing internal standard (modified citrulline). Samples were loaded onto the Rapid Fire RF300 system (Agilent) wherein they were first sipped for 1000 ms and then directly loaded to a C18 separations cartridge using a mixture of acetonitrile containing 0.01% formic acid for 3000 ms desalting. The flow rate of the mobile phase was 1.5 ml/min. Once the samples were eluted from the cartridge, a mobile phase of acetonitrile containing 0.01% formic acid was used to move the samples into the mass spectrometer for 4000 ms at a flow rate of 1.25 ml/min/Sciex API5500 triple quadrupole mass spectrometer (Applied Biosystems) equipped with ESI was used to analyze the peptidyl citrulline and internal standard ions.
MRM transition of product and internal standard were monitored at m/z 424.5 to 350.4 and m/z 293 to 247 respectively. The dwell time for each transition was set at 200 ms, and the ESI voltage was used at 5500 with a source temperature of 400° C. Extracted ion peaks for each transition were integrated using the Rapid Fire Integrator software. Peak area of analyte was normalized with internal standard.).

Sequence of human PAD4 (hPAD4) (Q9UM07 whole entry): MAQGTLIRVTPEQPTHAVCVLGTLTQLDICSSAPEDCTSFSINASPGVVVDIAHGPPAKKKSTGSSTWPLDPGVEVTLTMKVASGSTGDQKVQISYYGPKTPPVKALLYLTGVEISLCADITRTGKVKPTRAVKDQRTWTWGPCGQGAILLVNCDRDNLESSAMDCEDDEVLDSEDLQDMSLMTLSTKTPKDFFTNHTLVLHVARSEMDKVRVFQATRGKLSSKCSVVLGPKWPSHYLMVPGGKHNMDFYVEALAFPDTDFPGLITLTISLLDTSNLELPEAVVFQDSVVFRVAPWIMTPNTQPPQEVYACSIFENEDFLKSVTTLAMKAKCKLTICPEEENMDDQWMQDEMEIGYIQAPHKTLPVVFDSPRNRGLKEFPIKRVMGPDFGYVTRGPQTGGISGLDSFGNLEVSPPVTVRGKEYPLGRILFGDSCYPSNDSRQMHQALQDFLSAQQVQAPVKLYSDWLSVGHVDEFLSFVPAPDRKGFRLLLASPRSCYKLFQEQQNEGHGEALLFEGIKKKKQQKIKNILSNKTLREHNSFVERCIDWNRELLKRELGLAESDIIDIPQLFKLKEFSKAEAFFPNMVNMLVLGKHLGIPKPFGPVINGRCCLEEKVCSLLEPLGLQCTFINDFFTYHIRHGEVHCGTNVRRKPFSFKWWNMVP

IC50	SMILES
70 nM	COc1cc(C(=O)N2C[C@H]3CC[C@@H]2[C@@H]3N)cc2nc(-c3cc4scc(CC(CN)CCl)c4n3CC3CC3)n(C)c12 (stereo partly drawn) [Example 19, (2-(3-(3-amino-2-(chloromethyl)propyl)-4-(cyclopropylmethyl)-4H-thieno[3,2-b]pyrrol-5-yl)-7-methoxy-1-methyl-1H-benzo[d]imidazol-5-yl)((1R,4R,7R)-7-amino-2-azabicyclo[2.2.1]heptan-2-yl)methanone]
63 nM	COc1cc(C(=O)N2C[C@H]3CC[C@@H]2[C@@H]3N)cc2nc(-c3cc4scc(C5COC5)c4n3CC3CC3)n(C)c12 [Example 2, ((1R,4R,7R)-7-amino-2-azabicyclo[2.2.1]heptan-2-yl)(2-(4-(cyclopropylmethyl)-3-(oxetan-3-yl)-4H-thieno[3,2-b]pyrrol-5-yl)-7-methoxy-1-methyl-1H-benzo[d]imidazol-5-yl)methanone]
55 nM	COc1cc(C(=O)N2C[C@H]3CC[C@@H]2[C@@H]3N)cc2nc(-c3cc4scc(C5CN(C(C)=O)C5)c4n3CC3CC3)n(C)c12 [Example 23, 1-(3-(5-(5-((1R,4R,7R)-7-amino-2-azabicyclo[2.2.1]heptane-2-carbonyl)-7-methoxy-1-methyl-1H-benzo[d]imidazol-2-yl)-4-(cyclopropylmethyl)-4H-thieno[3,2-b]pyrrol-3-yl)azetidin-1-yl)ethan-1-one]
32 nM	COc1cc(C(=O)N2C[C@H]3CC[C@@H]2[C@@H]3N)cc2nc(-c3cc4scc(CCC(C)(C)O)c4n3CC3CC3)n(C)c12 [Example 6, ((1R,4R,7R)-7-amino-2-azabicyclo[2.2.1]heptan-2-yl)(2-(4-(cyclopropylmethyl)-3-(3-hydroxy-3-methylbutyl)-4H-thieno[3,2-b]pyrrol-5-yl)-7-methoxy-1-methyl-1H-benzo[d]imidazol-5-yl)methanone]
165 nM	COc1cc(C(=O)N2C[C@H]3CC[C@@H]2[C@@H]3N)cc2nc(-c3cc4scc(CC5CNC5)c4n3CC3CC3)n(C)c12 [Example 18, ((1R,4R,7R)-7-amino-2-azabicyclo[2.2.1]heptan-2-yl)(2-(3-(azetidin-3-ylmethyl)-4-(cyclopropylmethyl)-4H-thieno[3,2-b]pyrrol-5-yl)-7-methoxy-1-methyl-1H-benzo[d]imidazol-5-yl)methanone]

More lines, now with the values behind:

SMILES	IC50
COc1cc(C(=O)N2C[C@H]3CC[C@@H]2[C@@H]3N)cc2nc(-c3cc4sccc4n3CC3CC3)n(C)c12 [Example 29, ((1R,4R,7R)-7-amino-2-azabicyclo[2.2.1]heptan-2-yl)(2-(4-(cyclopropylmethyl)-4H-thieno[3,2-b]pyrrol-5-yl)-7-methoxy-1-methyl-1H-benzo[d]imidazol-5-yl)methanone]	84 nM
COc1cc(C(=O)N2C[C@H]3CC[C@@H]2[C@@H]3N)cc2nc(-c3cc4scc(C5CCN(C(C)=O)CC5)c4n3CC3CC3)n(C)c12 [Example 4, 1-(4-(5-(5-((1R,4R,7R)-7-amino-2-azabicyclo[2.2.1]heptane-2-carbonyl)-7-methoxy-1-methyl-1H-benzo[d]imidazol-2-yl)-4-(cyclopropylmethyl)-4H-thieno[3,2-b]pyrrol-3-yl)piperidin-1-yl)ethan-1-one]	14 nM
COc1cc(C(=O)N2C[C@H](N)C[C@@H](F)C2)cc2nc(-c3cc4scc(Br)c4n3CC3CC3)n(C)c12 [Example 31, ((3R,5R)-3-amino-5-fluoropiperidin-1-yl)(2-(3-bromo-4-(cyclopropylmethyl)-4H-thieno[3,2-b]pyrrol-5-yl)-7-methoxy-1-methyl-1H-benzo[d]imidazol-5-yl)methanone]	60 nM
COc1cc(C(=O)N2C[C@H]3CC[C@@H]2[C@@H]3N)cc2nc(-c3cc4scc(C5CCNCC5)c4n3CC3CC3)n(C)c12 [Example 3, ((1R,4R,7R)-7-amino-2-azabicyclo[2.2.1]heptan-2-yl)(2-(4-(cyclopropylmethyl)-3-(piperidin-4-yl)-4H-thieno[3,2-b]pyrrol-5-yl)-7-methoxy-1-methyl-1H-benzo[d]imidazol-5-yl)methanone]	12 nM
COc1cc(C(=O)N2C[C@H]3CC[C@@H]2[C@@H]3N)cc2nc(-c3cc4scc(C5CCCNC5)c4n3CC3CC3)n(C)c12 (single isomer, unassigned) [Example 17]	79 nM
COc1cc(C(=O)N2C[C@H]3CC[C@@H]2[C@@H]3N)cc2nc(-c3cc4scc(-c5ccc(O)c(Cl)c5)c4n3CC3CC3)n(C)c12 [Example 35, ((1R,4R,7R)-7-amino-2-azabicyclo[2.2.1]heptan-2-yl)(2-(3-(3-chloro-4-hydroxyphenyl)-4-(cyclopropylmethyl)-4H-thieno[3,2-b]pyrrol-5-yl)-7-methoxy-1-methyl-1H-benzo[d]imidazol-5-yl)methanone]	150 nM
COc1cc(C(=O)N2C[C@H]3CC[C@@H]2[C@@H]3N)cc2nc(-c3cc4scc(-c5cnn(C)c5)c4n3CC3CC3)n(C)c12 [Example 32, ((1R,4R,7R)-7-amino-2-azabicyclo[2.2.1]heptan-2-yl)(2-(4-(cyclopropylmethyl)-3-(1-methyl-1H-pyrazol-4-yl)-4H-thieno[3,2-b]pyrrol-5-yl)-7-methoxy-1-methyl-1H-benzo[d]imidazol-5-yl)methanone]	17 nM
COc1cc(C(=O)N2C[C@H]3CC[C@@H]2[C@@H]3N)cc2nc(-c3cc4scc(-c5cnc(C#N)nc5)c4n3CC3CC3)n(C)c12 [Example 41, 5-(5-(5-((1R,4R,7R)-7-amino-2-azabicyclo[2.2.1]heptane-2-carbonyl)-7-methoxy-1-methyl-1H-benzo[d]imidazol-2-yl)-4-(cyclopropylmethyl)-4H-thieno[3,2-b]pyrrol-3-yl)pyrimidine-2-carbonitrile]	140 nM
